Numbering of substitutions follows the chain as printed.
Key:
HCN1 mutant D140A = target: T1, HCN1 mutant D140A (Homo sapiens, UniProt O60741, D140A); experiment: Whole-cell patch-clamp, Ih inhibition, HCN1 mutant; format: cell-based
T1 construct: Full-length WT or mutant human HCN1 were cloned into the pcDNA3.1 vector; expressed in transfected cells; host or cells: HeLa cells, pcDNA3.1 vector, transient lipofection
T1 sequence (O60741 1-890 D140A): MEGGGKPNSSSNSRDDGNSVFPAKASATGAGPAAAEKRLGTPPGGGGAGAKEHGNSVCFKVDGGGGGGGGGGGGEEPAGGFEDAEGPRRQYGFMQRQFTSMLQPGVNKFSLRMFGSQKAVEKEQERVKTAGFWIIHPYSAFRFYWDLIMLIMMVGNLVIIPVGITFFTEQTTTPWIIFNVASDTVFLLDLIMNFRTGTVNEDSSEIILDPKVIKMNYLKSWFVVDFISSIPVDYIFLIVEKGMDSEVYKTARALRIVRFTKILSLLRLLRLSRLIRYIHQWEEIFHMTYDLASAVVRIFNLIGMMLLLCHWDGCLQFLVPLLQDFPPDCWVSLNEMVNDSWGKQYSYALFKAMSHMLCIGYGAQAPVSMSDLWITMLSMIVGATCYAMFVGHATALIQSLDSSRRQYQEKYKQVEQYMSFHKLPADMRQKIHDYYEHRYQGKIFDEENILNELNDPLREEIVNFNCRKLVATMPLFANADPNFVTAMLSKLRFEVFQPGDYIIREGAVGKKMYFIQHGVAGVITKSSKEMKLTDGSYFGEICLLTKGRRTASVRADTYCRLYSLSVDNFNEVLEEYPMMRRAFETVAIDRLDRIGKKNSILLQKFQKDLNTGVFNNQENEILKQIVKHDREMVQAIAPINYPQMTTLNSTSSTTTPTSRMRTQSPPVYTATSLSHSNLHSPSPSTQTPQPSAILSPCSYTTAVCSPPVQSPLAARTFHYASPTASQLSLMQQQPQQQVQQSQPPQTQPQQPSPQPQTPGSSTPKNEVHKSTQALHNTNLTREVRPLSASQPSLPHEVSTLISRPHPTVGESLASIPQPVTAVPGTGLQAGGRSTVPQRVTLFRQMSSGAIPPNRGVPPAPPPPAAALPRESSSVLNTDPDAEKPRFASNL
Description: (§1) To elucidate the contribution of these residues to the inhibitory effect of ivabradine, we introduced mutations in ivabradine-interacting residues, converting them into alanines (Fig. 2F).
(§2) Full-length WT or mutant human HCN1 were cloned into the pcDNA3.1 vector for electrophysiological experiments. HeLa cells (from Thermo Fisher Scientific) cultured in Dulbecco's modified Eagle's medium (from Solarbio Life Science) + 10% fetal bovine serum (from ExCell Bio) at 37 °C were transiently transfected using lipofection, and whole-cell patch-clamp recordings were obtained using the Axon 200B amplifier (Molecular Devices) and clampex software (https://www.moleculardevices.com/products/axon-patch-clamp-system/acquisition-and-analysis-software/pclamp-software-suite), 36 to 48 h posttransfection. The extracellular solution contained 110 mM NaCl, 0.5 mM MgCl2, 1.8 mM CaCl2, 5 mM Hepes, 30 mM KCl, and pH was adjusted to 7.4 with NaOH, while the pipette solution contained 130 mM KCl, 10 mM NaCl, 0.5 mM MgCl2, 1 mM EGTA, 5 mM Hepes, and pH was adjusted to 7.4 with KOH. The recordings were performed at room temperature, voltage-clamp mode, and filtered at 1 kHz. The sampling frequency was 10 kHz, and the series resistance was limited to 5 MΩ. To elicit channel currents, step pulses of 3 s duration ranging from −180 mV to −30 mV were applied, followed by a step to −180 mV lasting 1.25 s. The tail currents evoked by the second step were used to determine the voltage-dependent activation curves and calculate the midpoint of activation potential (V1/2). The half maximal inhibitory concentration (IC50) of drugs was determined by recording currents at a pulse of −140 mV and analyzing current amplitudes at varying drug concentrations. The IC50 value was calculated using the Hill equation.

HCN1 mutant F143A = target: T2, HCN1 mutant F143A (Homo sapiens, UniProt O60741, F143A); experiment: Whole-cell patch-clamp, Ih inhibition, HCN1 mutant; format: cell-based
T2 construct: Full-length WT or mutant human HCN1 were cloned into the pcDNA3.1 vector; expressed in transfected cells; host or cells: HeLa cells, pcDNA3.1 vector, transient lipofection
T2 sequence (O60741 1-890 F143A): T1 sequence (O60741 1-890 D140A) with A140D, F143A
Description: as §1, §2

IC50 (HCN1 mutant D140A; D140A mutant, electrophysiological recordings, read-out: IC50 (Fig. 2F)): 27.6 µM | change in potency by mutation (HCN1 mutant D140A; D140A versus WT): dramatic decrease | IC50 (HCN1 mutant F143A; F143A mutant, electrophysiological recordings, read-out: IC50 (Fig. 2F)): 32.9 µM | change in potency by mutation (HCN1 mutant F143A; F143A versus WT): dramatic decrease
SMILES: COc1cc2c(cc1OC)CC(=O)N(CCCN(C)C[C@H]1Cc3cc(OC)c(OC)cc31)CC2 [ivabradine]
